Measured values reported in paper PMC9505732, “Chemistry and Bioactivity of the Deep-Water Antarctic Octocoral Alcyonium sp” (Marine Drugs, 2022).
pIC50: −log10 of the molar value. ≈ marks a conversion by molar mass, not a printed value.

What was measured:
[1] = tested on: Leishmania donovani; assay: Leishmania donovani infected macrophage assay; assay type: cell-based; conditions: read-out: IC50 against Leishmania donovani
Procedure: (§1) The Leishmania donovani infected macrophage assay and cytotoxicity screen were conducted as previously described.

[2] = MTT cytotoxicity toward human kidney cells; assay type: cell-based; conditions: human, HEK293T cells; host cell line HEK293T, MTT, 24 h incubation
Procedure: (§2) The cytotoxicity of the metabolites to human liver cells and kidney cells was determined using an MTT based-In Vitro Toxicology Assay Kit (Sigma–Aldrich, St. Louis, MO, USA) following the manufacturing instructions. The human kidney HEK293T cells and the human liver HEPGZ cells were used for the evaluation in this study. Both cell samples were maintained and suspended in Dulbecco’s Modified Eagle Medium (DMEM with 4.5 g/L glucose, L-glutamine and sodium pyruvate, Corning, Manassas, VA, USA) containing 10% fetal bovine serum (Thermo Scientific) and 1% penicillin/streptomycin at 37 °C under 5% CO2 atmosphere. The cells were plated on a 96-well plate with approximately 5 × 10^3–1 × 10^4 cells in each well, and incubated at 37 °C overnight. After that, each of the selected extracts from the antimicrobial susceptibility test was added to the wells and incubated with the cells at a series of 2-fold diluted concentrations ranging from 128 μg/mL to 0.125 μg/mL. […] After that, the liquid in each well of the plate was removed carefully and thoroughly, then the cells in the wells were treated with 100 μL of DMSO, and incubated at 37 °C for 15 m. […] Bio Tek Instruments, Inc. Winooski VT). Cells treated with vancomycin, a common option for treating CDI in clinical settings, were also included in the MTT tests as a control. Cell survival and the IC50 were calculated according to the method used in a previous publication: Survival of cells (%) = Drug-treated group OD540/control group OD540 × 100. The IC50 value was calculated as follows: lgIC50 = Xm − I [P − (3 − Pm − Pn)/4], where Xm was the log maximum dose, I was the log (maximum dose/adjacent dose), P was the sum of the positive response rate, Pm was the maximum positive response rate, and Pn was the minimum positive response rate.

[3] = Cytotoxicity screen against Leishmania host cell line; assay type: cell-based; conditions: mouse, J774.A1 macrophages
Procedure: as §1

[4] = tested on: C. difficile UK6; assay: microbe, parasite or virus in culture; assay type: cell-based, Clostridium difficile; conditions: Clostridioides difficile, UK6, 48 h, read-out: MIC against C. difficile
Procedure: The screening against C. difficile was performed in two steps. In step 1, overnight culture of a hyper-virulent clinical strain C. difficile UK6 was inoculated into a fresh BHIS medium at a volume ratio of 1:1000. After pre-incubation at 37 °C under an anaerobic atmosphere for 2 h, the bacterial culture was divided into a sterile 96-well plate and each well contained 192 μL of bacterial culture. Then, 8 μL of each extract was added to each well of the plate, mixed thoroughly, and incubated at 37 °C in an anaerobic chamber for 48 h. Control groups of 200 μL of BHIS medium only, 200 μL of bacterial culture only, and 192 μL of bacterial culture in 8 μL of DMSO were also included in separate columns within each plate. […] Serial dilutions of each extract (400 μg/mL, 200 μg/mL, 100 μg/mL, 50 μg/mL, 20 μg/mL, 10 μg/mL, 5 μg/mL, and 2 μg/mL) were prepared in a fresh BHIS medium. Then, 100 μL of each extract dilution was added to 100 μL of bacterial culture (pretreated as described), mixed well, and incubated at 37 °C in an anaerobic chamber for 48 h. Control groups including wells containing fresh medium only and bacterial culture only were also included as described. Activity was determined as +/− (clear or turbid (OD600) culture). The MICs of the three recommended antibiotics metronidazole, vancomycin, and fidaxomicin against C. difficile UK6 were also determined using broth microdilution methodology.

[5] = MTT cytotoxicity toward human liver cells; assay type: cell-based; conditions: human, HepG2 cells; host cell line HepG2, MTT, 24 h incubation
Procedure: as §2

[6] = tested on: ESKAPE panel of bacterial pathogens; assay: ESKAPE panel antibacterial screen; assay type: cell-based
[7] = tested on: HEK293T cells; assay: MTT cytotoxicity toward human kidney cells; assay type: cell-based; conditions: at the same concentrations alcyopterosins were assayed
Procedure: as §2

[8] = tested on: HepG2 cells; assay: MTT cytotoxicity toward human liver cells; assay type: cell-based; conditions: at the same concentrations alcyopterosins were assayed
Procedure: as §2

Row | SMILES | pIC50 [1] | MIC [4] [µM] | activity against the ESKAPE panel of bacterial pathogens [6] | further results
1 | Cc1cc2c(c3c1[C@@H](CCl)OC3=O)CC(C)(C)[C@@H]2O [alcyopterosin L] | 5.62 | – | – | –
2 | Cc1cc2c(c3c1[C@@H](CO[N+](=O)[O-])OC3=O)CC(C)(C)C2 [Alcyopterosin E] | 5.51 | 6.9 (≈ 2.01 µg/mL) | inactive | CC50 at 24 h [2]: 570 µM; pIC50 [3]: 4.21; CC50 at 24 h [5]: 331 µM
3 | CC(=O)O[C@@H]1[C@H](OC(C)=O)[C@H]([C@H](C)CCCC(C)C)[C@@]2(C)C[C@@H](OC(C)=O)[C@H]3[C@@H](C[C@@H](O)[C@H]4CC=CC(=O)[C@]34C)[C@H]12 [alcyosterone] | 5.82 | – | inactive | –
4 | Cc1cc2c(c3c1[C@@H](CO)OC3=O)CC(C)(C)C2 [Alcyopterosin V] | 5.15 | 8.1 (≈ 2 µg/mL) | inactive | CC50 at 24 h [2]: 220 µM; pIC50 [3]: 3.96; CC50 at 24 h [5]: 288 µM
5 | CN[C@H](CC(C)C)C(=O)N[C@H]1C(=O)N[C@@H](CC(N)=O)C(=O)N[C@H]2C(=O)N[C@H]3C(=O)N[C@H](C(=O)N[C@H](C(=O)O)c4cc(O)cc(O)c4-c4cc3ccc4O)[C@H](O)c3ccc(c(Cl)c3)Oc3cc2cc(c3O[C@@H]2O[C@H](CO)[C@@H](O)[C@H](O)[C@H]2O[C@H]2C[C@](C)(N)[C@H](O)[C@H](C)O2)Oc2ccc(cc2Cl)[C@H]1O [Vancomycin, reference compound] | – | 0.34 (≈ 0.493 µg/mL) | – | toxicity to host cells HEK293T [7]: non-toxic; toxicity to host cells HepG2 [8]: non-toxic
6 | Cc1cc2c(c(C)c1CCO[N+](=O)[O-])CC(C)(C)C2=O [alcyopterosin C] | 4.89 | – | – | –
7 | CCCCCCCCCCCCCCCCOP(=O)([O-])OCC[N+](C)(C)C [miltefosine, reference compound] | 5.21 | – | – | –
8 | CC(=O)OCCc1c(C)cc2c(c1COC(C)=O)CC(C)(C)C2 [4,12-Bis(acetyl)alcyopterosin O, 4,12-bis(acetyl)alcyopterosin O] | 5.92 | – | – | –
